Test results taken from ChEMBL document CHEMBL1137751, “Molecular hybridization, synthesis, and biological evaluation of novel chroman I(Kr) and I(Ks) dual blockers” (Bioorg Med Chem Lett, 2009).
Activity calls are given as the source filed them. The rule behind the calls is not given here.

Experiments:
[1] = biological target: T1, Voltage-gated inwardly rectifying potassium channel KCNH2 (Cavia porcellus, UniProt O08703); experiment: Inhibition of ERG in guinea pig ventricular myocytes assessed as blockade of rapid delayed rectifier potassium current by whole cell patch-clamp technique
T1 sequence (O08703 whole entry): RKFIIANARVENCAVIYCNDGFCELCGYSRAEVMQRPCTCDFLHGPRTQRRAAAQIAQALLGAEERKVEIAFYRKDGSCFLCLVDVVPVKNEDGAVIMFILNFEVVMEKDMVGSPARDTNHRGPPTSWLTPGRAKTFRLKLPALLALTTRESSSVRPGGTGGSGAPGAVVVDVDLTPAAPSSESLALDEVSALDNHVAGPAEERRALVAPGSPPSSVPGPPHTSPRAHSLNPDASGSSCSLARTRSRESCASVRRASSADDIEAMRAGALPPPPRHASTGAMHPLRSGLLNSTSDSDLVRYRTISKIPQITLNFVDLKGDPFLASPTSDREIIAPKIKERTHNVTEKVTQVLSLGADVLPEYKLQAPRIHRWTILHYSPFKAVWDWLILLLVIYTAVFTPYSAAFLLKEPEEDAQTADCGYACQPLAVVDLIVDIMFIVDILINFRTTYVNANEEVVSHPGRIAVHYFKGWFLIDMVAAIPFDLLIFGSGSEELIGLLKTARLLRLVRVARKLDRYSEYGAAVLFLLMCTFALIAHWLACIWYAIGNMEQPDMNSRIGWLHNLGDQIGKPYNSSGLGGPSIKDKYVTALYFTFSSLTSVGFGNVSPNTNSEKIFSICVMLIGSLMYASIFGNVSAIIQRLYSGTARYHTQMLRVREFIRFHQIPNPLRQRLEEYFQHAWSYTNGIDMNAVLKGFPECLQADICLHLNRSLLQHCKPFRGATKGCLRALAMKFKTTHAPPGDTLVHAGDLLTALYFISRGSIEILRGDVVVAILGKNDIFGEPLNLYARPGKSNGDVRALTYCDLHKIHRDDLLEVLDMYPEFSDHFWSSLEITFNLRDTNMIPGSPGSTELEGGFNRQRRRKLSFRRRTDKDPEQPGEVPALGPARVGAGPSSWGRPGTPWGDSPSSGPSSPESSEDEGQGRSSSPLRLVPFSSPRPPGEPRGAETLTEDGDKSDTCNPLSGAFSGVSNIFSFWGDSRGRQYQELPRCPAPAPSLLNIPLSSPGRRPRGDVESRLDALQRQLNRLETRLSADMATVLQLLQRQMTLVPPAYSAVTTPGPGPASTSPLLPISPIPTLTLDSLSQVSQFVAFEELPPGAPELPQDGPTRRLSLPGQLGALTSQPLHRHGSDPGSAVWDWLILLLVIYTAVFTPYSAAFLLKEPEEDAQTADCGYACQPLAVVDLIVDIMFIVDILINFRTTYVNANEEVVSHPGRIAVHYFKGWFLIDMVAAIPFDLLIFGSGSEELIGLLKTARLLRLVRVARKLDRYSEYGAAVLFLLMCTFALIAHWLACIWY

[2] = biological target: T2, Potassium voltage-gated channel subfamily KQT member 1 (Cavia porcellus, UniProt O70344); experiment: Inhibition of KVLQT1/minK in guinea pig ventricular myocytes assessed as blockade of slow delayed rectifier potassium current by whole cell patch-clamp technique; type: cell-based, Ventricular myocyte
T2 sequence (O70344 whole entry): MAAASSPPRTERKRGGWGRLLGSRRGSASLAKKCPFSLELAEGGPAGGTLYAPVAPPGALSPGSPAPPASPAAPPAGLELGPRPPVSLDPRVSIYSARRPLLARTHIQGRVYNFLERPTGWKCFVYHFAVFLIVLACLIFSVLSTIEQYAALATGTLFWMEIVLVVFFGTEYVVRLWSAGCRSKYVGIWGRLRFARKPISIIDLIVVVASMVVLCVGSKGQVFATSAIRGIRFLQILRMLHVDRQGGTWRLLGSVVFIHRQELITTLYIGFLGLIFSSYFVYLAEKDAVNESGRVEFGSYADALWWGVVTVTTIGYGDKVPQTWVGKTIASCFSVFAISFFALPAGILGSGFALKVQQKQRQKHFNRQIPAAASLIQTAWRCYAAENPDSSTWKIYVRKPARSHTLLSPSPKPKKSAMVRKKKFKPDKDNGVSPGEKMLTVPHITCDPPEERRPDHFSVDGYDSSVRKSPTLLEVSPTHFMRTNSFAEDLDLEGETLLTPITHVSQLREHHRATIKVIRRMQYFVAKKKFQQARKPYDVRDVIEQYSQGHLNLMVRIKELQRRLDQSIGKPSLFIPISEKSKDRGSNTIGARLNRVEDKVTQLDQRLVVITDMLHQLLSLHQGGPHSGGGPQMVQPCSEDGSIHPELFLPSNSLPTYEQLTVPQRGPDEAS

[3] = system: Heart; experiment: Cardioprotective effect in isolated langendorff ischemia-reperfused Sprague-Dawley rat heart assessed as duration of QTc intervals at 1 uM after 20 mins; type: functional
[4] = system: Heart; experiment: Cardioprotective effect in isolated langendorff ischemia-reperfused Sprague-Dawley rat heart assessed as duration of QT intervals at 1 uM after 20 mins; type: functional
[5] = system: Heart; experiment: Cardioprotective effect in isolated langendorff ischemia-reperfused Sprague-Dawley rat heart assessed as reduction of heart rate at 1 uM after 20 mins by RR interval ECG signal; type: functional; set-up: scale not given: the % may be the effect or the level left
[6] = system: Heart; experiment: Antiarrhythmic activity in langendorff ischemia-reperfused Sprague-Dawley rat heart assessed as cardiac protection at 1 uM; type: functional, tissue-based
[7] = system: Heart; experiment: AUC in isolated langendorff ischemia-reperfused Sprague-Dawley rat heart at 1 uM; type: ADME, tissue-based
[8] = system: Heart; experiment: Antiarrhythmic activity in langendorff ischemia-reperfused Sprague-Dawley rat heart assessed as cardiac protection at 3 uM; type: functional, tissue-based
[9] = system: Heart; experiment: Cardioprotective effect in isolated langendorff ischemia-reperfused Sprague-Dawley rat heart assessed as duration of QTc intervals at 3 uM after 20 mins; type: functional
[10] = system: Heart; experiment: Cardioprotective effect in isolated langendorff ischemia-reperfused Sprague-Dawley rat heart assessed as reduction of heart rate at 3 uM after 20 mins by RR interval ECG signal; type: functional
[11] = system: Heart; experiment: Cardioprotective effect in isolated langendorff ischemia-reperfused Sprague-Dawley rat heart assessed as duration of QT intervals at 3 uM after 20 mins; type: functional
[12] = system: Heart; experiment: Cardioprotective effect in isolated langendorff ischemia-reperfused Sprague-Dawley rat heart assessed as duration of QTc intervals at 0.3 uM after 20 mins; type: functional
[13] = system: Heart; experiment: Cardioprotective effect in isolated langendorff ischemia-reperfused Sprague-Dawley rat heart assessed as reduction of heart rate at 0.3 uM after 20 mins by RR interval ECG signal; type: functional
[14] = system: Heart; experiment: Cardioprotective effect in isolated langendorff ischemia-reperfused Sprague-Dawley rat heart assessed as duration of QT intervals at 0.3 uM after 20 mins; type: functional

| SMILES | IC50 [2] | IC50 [1] | Activity [3] | Activity [4] | Activity [5] | Activity [6] | other results |
| --- | --- | --- | --- | --- | --- | --- | --- |
| CN1CCN(CCCN2C(=O)CN(/N=C3\CCOc4ccc(Cl)cc43)C2=O)CC1 | 0.0058 µM | 3.87 µM |  |  |  |  |  |
| CCOc1ccc2c(c1)/C(=N/N1CC(=O)N(CCCCN3CCN(C)CC3)C1=O)CCO2 | > 10 µM | 6.15 µM |  |  |  |  |  |
| CN1CCN(CCCCN2C(=O)CN(/N=C/c3ccc(-c4ccc(Cl)cc4)o3)C2=O)CC1 [AZIMILIDE] | 0.24 µM | 0.18 µM | 316.7 ms/s1/2 | 8% | 12% | Active |  |
| CCCOc1ccc2c(c1)/C(=N/N1CC(=O)N(CCCN3CCN(C)CC3)C1=O)CCO2 |  |  | 2% | 13% | 18% | Active | Activity [7]: Dose-dependent effect; Activity [8]: Active; Activity [9]: 400.9 ms/s1/2; Activity [10]: 179 bpm; Activity [11]: 248 ms; Activity [12]: 326.1 ms/s1/2; Activity [13]: 198 bpm; Activity [14]: 186.7 ms |
| CCCCc1oc2ccccc2c1C(=O)c1cc(I)c(OCCN(CC)CC)c(I)c1 [AMIODARONE] |  |  | 13% | 12% | 17% | Active |  |

The next lines start with results.

| IC50 [2] | SMILES | IC50 [1] | Activity [3] | Activity [4] | Activity [5] | Activity [6] | other results |
| --- | --- | --- | --- | --- | --- | --- | --- |
| 5.4 µM | O=C1CN(/N=C2\CCOc3ccc(O)cc32)C(=O)N1CCCCN1CCCCC1 | > 10 µM |  |  |  |  |  |
| > 100 µM | Cc1ccc2c(c1)/C(=N/N1CC(=O)N(CCCCN3CCN(C)CC3)C1=O)CCO2 | > 10 µM |  |  |  |  |  |
| 60 µM | CN1CCN(CCCCN2C(=O)CN(/N=C3\CCOc4ccc(O)cc43)C2=O)CC1 | > 100 µM |  |  |  |  |  |
